The IC50 is the point on the concentration scale where inhibition reaches its midpoint. High values mean lower potency, low ones higher potency.

Here are results for 4 molecules from patent US5955463A, “Quinazoline thymidylate synthase inhibitors” (Zeneca Limited, priority 1992, dated 1999).

The test system of series [1] is leukaemia cell line L1210. The experiment in a line: Test (b): inhibition of growth of leukaemia cell line L1210 in cell culture. The format is cell-based. The conditions noted are these: Mus musculus. An excerpt: (b) An assay which determines the ability of a test compound to inhibit the growth of the leukaemia cell line L1210 in cell culture.
In series [2] the test system is human breast cancer cell line MCF-7. The experiment in a line: Test (c): inhibition of growth of human breast cancer cell line MCF-7 in cell culture. The format is cell-based. The conditions noted are these: MCF7, MCF-7 cell culture growth. An excerpt:
(c) An assay which determines the ability of a test compound to inhibit the growth of the human breast cancer cell line MCF-7 in cell culture.

The target of series [3] is T1, thymidylate synthase (Mus musculus, UniProt P07607).
T1 construct: obtained in partially purified form from L1210 mouse leukaemia cells; endogenous in cells; host or cells: L1210 mouse leukaemia cells
T1 sequence (P07607 whole entry): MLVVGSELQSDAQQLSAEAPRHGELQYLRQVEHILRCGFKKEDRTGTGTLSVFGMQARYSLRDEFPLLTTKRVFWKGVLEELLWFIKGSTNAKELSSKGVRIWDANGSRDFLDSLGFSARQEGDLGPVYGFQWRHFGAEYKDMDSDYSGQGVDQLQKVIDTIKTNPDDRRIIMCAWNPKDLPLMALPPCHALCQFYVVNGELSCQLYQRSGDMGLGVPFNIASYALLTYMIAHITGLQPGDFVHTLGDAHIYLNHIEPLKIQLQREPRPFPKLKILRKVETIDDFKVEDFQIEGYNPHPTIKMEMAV
The experiment in a line: Test (a): in vitro inhibition of thymidylate synthase (partially purified from L1210 mouse leukaemia cells). The format is biochemical. An excerpt: (a) An in vitro assay which determines the ability of a test compound to inhibit the enzyme thymidylate synthase.

Series [4] concerns human breast, ovarian and liver cancer. The conditions noted are these: clinical trials; cited from earlier work.
The conditions of series [5]: particularly liver and kidney; cited from earlier work.

In the case of `C#CCN(Cc1cc2c(=O)[nH]c(C)nc2cc1C)c1ccc(C(=O)N[C@@H](CCc2nnn[nH]2)C(=O)O)c(F)c1` [(2S)-2-{o-fluoro-p-[N-(2,7-dimethyl-4-oxo-3,4-dihydroquinazolin-6-ylmethyl)-N-(prop-2-ynyl)amino]benzamido}-4-(tetrazol-5-yl)butyric acid], the IC50 in series [1] is ~20 nM; in series [2], ~10 nM.
Regarding `Cc1nc2cc(C)c(CN(C)c3ccc(C(=O)N[C@@H](CCc4nnn[nH]4)C(=O)O)c(F)c3)cc2c(=O)[nH]1` [(2S)-2-{o-fluoro-p-[N-(2,7-dimethyl-4-oxo-3,4-dihydroquinazolin-6-ylmethyl)-N-methylamino]benzamido}-4-(tetrazol-5-yl)butyric acid], the IC50 in series [3] is ~2 nM; in series [1], ~70 nM; in series [2], ~40 nM.
The corresponding values for `C#CCN(Cc1ccc2nc(C)[nH]c(=O)c2c1)c1ccc(C(=O)N[C@@H](CCc2nnn[nH]2)C(=O)O)cc1` [(2S)-2-{p-[N-(2-methyl-4-oxo-3,4-dihydroquinazolin-6-ylmethyl)-N-(prop-2-ynyl)amino]benzamido}-4-(tetrazol-5-yl)butyric acid] are ~13 nM, ~120 nM and ~40 nM.
In the case of `C#CCN(Cc1ccc2nc(N)[nH]c(=O)c2c1)c1ccc(C(=O)N[C@@H](CCC(=O)O)C(=O)O)cc1` [CB3717], the “activity against human breast, ovarian and liver cancer” value in series [4] was “promising activity against human breast, ovarian and liver cancer”. In series [5], the “symptoms of toxicity in humans” value was “shows symptoms of toxicity in humans, particularly in relation to the liver and kidney”.
